Assay results published in US20240158426A1, “TRANSITION METAL COMPLEX CONTAINING TETRADENTATE NITROGEN DONOR LIGAND AND ELECTROCHEMICAL BIOSENSOR COMPRISING SAME” (I-sens, Inc., priority 2020, published 2024).

Test: Cyclic voltammetry (CV) of TPMA-based osmium complexes
Details: Cl^− counter ion form; Ag/AgCl reference electrode; scanning rate 10 mV/s
Experimental: In order to analyze electrochemical properties of the synthesized TPMA-based osmium complexes, cyclic voltammetry (CV) was used. A well-washed carbon glass electrode with a diameter of 3 mm was used as a working electrode, and an Ag/AgCl electrode was used as a reference electrode, and a Pt electrode was used as a counter electrode to measure it at a scanning rate of 10 mV/s. […] In order to find out only the position of the redox peak, the complex in a Cl^− counter ion form was measured in condition that the concentration of each substance was not constant, by measuring the Cl^− substance in a solution state during the anion exchange process. […] The change in the oxidation/reduction potential according to the type of the substituent and coordinated ligand was analyzed centering on the present complex.

- oxidation/reduction potential E1/2: −0.339 V
Substance: [Os(TPMA)Cl2]^+(PF6^−) [Complex 18]
